In publication PMC8765437, “GSK3640254 Is a Novel HIV-1 Maturation Inhibitor with an Optimized Virology Profile” (Antimicrobial Agents and Chemotherapy, 2022):
Read-outs that look alike come from different tables or passages of the source.

System: NLRepRlucP373S viruses containing Gag SDMs or gag/pr genes from clinical isolates
Assay: Multiple-cycle replication assay, NLRepRluc reporter viruses in MT-2 cells, luciferase endpoint
Format: cell-based, HIV-1
From the text: Multiple-cycle assays using recombinant viruses or clinical isolates were used to assess MI antiviral activity as described previously ([10]). pNLRepRlucP373S (the P373S change is in the Gag gene and converts an outlier polymorphism in the NL4-3 gene to the prevalent amino acid in the population) plasmids containing SDMs in Gag or gag/pr regions from clinical isolates were transfected into HEK 293T cells, and the supernatant containing recombinant virus was harvested after 4 to 5 days. Virus was used to infect MT-2 cells in the presence of a 3-fold serially diluted compound at a final dimethyl sulfoxide (DMSO) concentration of 1%. The inocula of the reporter viruses were determined based on the luciferase activity detected on day 4 postinfection. The MOI (ratio of infectious virions to target cells) of reporter-free laboratory strains and clinical isolates was 0.005, as derived from a tissue culture infectious dose study. Clinical isolates or reporter-free viruses were examined in the reporter CEM-NKR-CCR5-Luc cells or PBMCs at MOIs ranging from 0.005 to 0.01. Each infection started with a drug-free preincubation of the cell-virus mixtures, performed at 37°C and 5% CO2 for either 1 h at 2 times the final cell density (reporter viruses) or 1 h (reporter-free laboratory strains) or 3 h (clinical isolates) using cell pellets in 0.5 mL of medium. After preincubation, cell-virus mixtures were added to compound-containing 96-well plates for a final cell density of either 10,000 (MT-2 cells for reporter viruses), 20,000 (MT-2 and PM1 cells for reporter-free laboratory strains), 200,000 (PBMCs for clinical isolates), or 500,000 (CEM-NKR-CCR5-Luc for reporter-free laboratory strains) cells per well. The CEM-NKR-CCR5-Luc cell assay was performed in the presence of Polybrene (10 μg/mL). Virus growth was determined on days 4 to 5 postinfection for reporter variants or days 5 to 11 for the other viruses. The reporter viruses were detected by a luciferase assay according to manufacturer protocols (Brite-Glo luciferase kit [Promega] for CEM-NKR-CCR5-Luc cells and Dual-Luciferase Reporter 1000 assay system [Promega] for the other cells), and luminescence was detected on a Wallac Trilux. The growth of clinical isolates in PBMCs was quantitated by reverse transcriptase activity in a 96-well scintillation proximity assay (SPA). Twenty microliters of culture supernatants was mixed with 40 μL of reaction cocktail (62.5 mM Tris-HCl [pH 7.8], 100 mM KCl, 0.0625% NP-40, 2.5 mM dithiothreitol [DTT], 6.25 mM MgCl2, 1 mM EGTA, 6.25 μg/mL of poly rA, 2.5 μg/mL of streptavidin SPA beads prebound with biotinylated-dT12-18, and 1 μCi of [^3H]TTP). Mixtures were incubated at 37°C for ∼3 h and quenched with 100 μl of 0.25 M EDTA per well. Luminescence was detected on a Wallac Trilux programmed for tritium counting with SPA beads in opaque plates. The growth of the reporter-free laboratory M-tropic strains and clinical isolates was monitored by a p24 enzyme-linked immunosorbent assay (ELISA; PerkinElmer Life Sciences, Waltham, MA) performed on culture supernatants. […] A 1:1,000 dilution of cell supernatant in PBS was generally observed to fall in the dynamic range of the endpoint signal.
Maximal percent inhibition values were calculated as MPI = 100 – (mean signals at the 2 highest concentrations of compound/mean signal of 2 no-drug control wells) × 100.

[1] = Human immunodeficiency virus 1, MT2, ΔV370, 10% FBS

Compound: C=C(C)[C@@H]1CC[C@]2(NCCN3CCS(=O)(=O)CC3)CC[C@]3(C)[C@H](CC[C@@H]4[C@@]5(C)CC=C(C6=CC[C@@](CF)(C(=O)O)CC6)C(C)(C)[C@@H]5CC[C@]43C)[C@@H]12 [GSK’254]
- EC90 (Human immunodeficiency virus 1, MT2, read-out: PBA EC90, subtype B gag/pr 93US155 (V370T)): 14 nM
- EC90 (Human immunodeficiency virus 1, MT2, read-out: PBA EC90, subtype B gag/pr 411-1-C (Wild-type)): 7 nM
- EC90 (Human immunodeficiency virus 1, MT2, read-out: PBA EC90, subtype B gag/pr 220162 (Wild-type)): 40 nM
- EC90 (Human immunodeficiency virus 1, MT2, read-out: PBA EC90, subtype B gag/pr 400024 (V370M)): 10 nM
- EC90 (Human immunodeficiency virus 1, MT2, read-out: PBA EC90, subtype B gag/pr 400051 (V370A)): 21 nM
- EC90 (Human immunodeficiency virus 1, MT2, read-out: PBA EC90, subtype B gag/pr 1000038 (V362I/V370A)): 43 nM
- EC90 (Human immunodeficiency virus 1, MT2, read-out: PBA EC90, subtype B gag/pr 1000156 (V362I)): 63 nM
- EC90 (Human immunodeficiency virus 1, MT2, read-out: PBA EC90, subtype B gag/pr 1900120 (V370M)): 11 nM
- EC90 (Human immunodeficiency virus 1, MT2, read-out: PBA EC90, subtype B gag/pr 1900140 (V362I)): 47 nM
- EC90 (Human immunodeficiency virus 1, MT2, read-out: PBA EC90, subtype C gag/pr 93MW690): 17 nM
- EC90 (Human immunodeficiency virus 1, MT2, read-out: PBA EC90, subtype C gag/pr 97ZA003): 24 nM
- EC90 (Human immunodeficiency virus 1, MT2, read-out: PBA EC90, subtype C gag/pr 98CN009): 27 nM
- EC90 (Human immunodeficiency virus 1, MT2, read-out: PBA EC90, subtype C gag/pr 98IN026): 16 nM
- EC90 (Human immunodeficiency virus 1, MT2, read-out: PBA EC90, subtype C gag/pr 11657-3): 37 nM
- EC90 (Human immunodeficiency virus 1, MT2, read-out: PBA EC90, subtype C gag/pr 20635-4): 40 nM
- EC90 (Human immunodeficiency virus 1, MT2, read-out: PBA EC90, subtype C gag/pr 1700141): 19 nM
- EC90 (Human immunodeficiency virus 1, MT2, read-out: PBA EC90, subtype C gag/pr 1900543): 24 nM
- EC90 (Human immunodeficiency virus 1, MT2, read-out: mean PBA EC90, 44-member library of genotyped chimeric and SDM viruses, protein-binding adjusted): 33 nM
- EC50 (Human immunodeficiency virus 1, MT2, subtype B gag/pr 4NRR (Wild-type)): 1 nM
- EC50 (Human immunodeficiency virus 1, MT2, subtype B gag/pr 28-MDR (Wild-type)): 1 nM
- EC50 (Human immunodeficiency virus 1, MT2, subtype B gag/pr 92BR014 (V370M)): 1 nM
- EC50 (Human immunodeficiency virus 1, MT2, subtype B gag/pr 92BR018 (V, QAΔ)): 1 nM
- EC50 (Human immunodeficiency virus 1, MT2, subtype B gag/pr 92TH014 (V362I)): 1 nM
- EC50 (Human immunodeficiency virus 1, MT2, subtype B gag/pr 92TH026 (V362I)): 4 nM
- EC50 (Human immunodeficiency virus 1, MT2, subtype B gag/pr 92US072 (V362I)): 1 nM
- EC50 (Human immunodeficiency virus 1, MT2, subtype B gag/pr 92US729 (Wild-type)): 1 nM
- EC50 (Human immunodeficiency virus 1, MT2, subtype B gag/pr 93BR008 (V362I)): 2 nM
- EC50 (Human immunodeficiency virus 1, MT2, subtype B gag/pr 93BR009 (V370M)): 2 nM
- EC50 (Human immunodeficiency virus 1, MT2, subtype B gag/pr 93BR017 (V, QAΔ)): 2 nM
- EC50 (Human immunodeficiency virus 1, MT2, subtype B gag/pr 93BR022 (V, QAΔ)): 3 nM
- EC50 (Human immunodeficiency virus 1, MT2, subtype B gag/pr 93TH0647 (V362I)): 2 nM
- EC50 (Human immunodeficiency virus 1, MT2, subtype B gag/pr 93US141 (V362I)): 2 nM
- EC50 (Human immunodeficiency virus 1, MT2, subtype B gag/pr 93US155 (V370T)): 1 nM
- EC50 (Human immunodeficiency virus 1, MT2, subtype B gag/pr 411-1-C (Wild-type)): 0.5 nM
- EC50 (Human immunodeficiency virus 1, MT2, subtype B gag/pr 220162 (Wild-type)): 2 nM
- EC50 (Human immunodeficiency virus 1, MT2, subtype B gag/pr 400024 (V370M)): 1 nM
- EC50 (Human immunodeficiency virus 1, MT2, subtype B gag/pr 400051 (V370A)): 1 nM
- EC50 (Human immunodeficiency virus 1, MT2, subtype B gag/pr 1000038 (V362I/V370A)): 3 nM
- EC50 (Human immunodeficiency virus 1, MT2, subtype B gag/pr 1000156 (V362I)): 4 nM
- EC50 (Human immunodeficiency virus 1, MT2, subtype B gag/pr 1900120 (V370M)): 1 nM
- EC50 (Human immunodeficiency virus 1, MT2, subtype B gag/pr 1900140 (V362I)): 1 nM
- EC50 (Human immunodeficiency virus 1, MT2, subtype C gag/pr 93MW690): 1 nM
- EC50 (Human immunodeficiency virus 1, MT2, subtype C gag/pr 97ZA003): 1 nM
- EC50 (Human immunodeficiency virus 1, MT2, subtype C gag/pr 98CN009): 1 nM
- EC50 (Human immunodeficiency virus 1, MT2, subtype C gag/pr 98IN026): 1 nM
- EC50 (Human immunodeficiency virus 1, MT2, subtype C gag/pr 10215-6): 1 nM
- EC50 (Human immunodeficiency virus 1, MT2, subtype C gag/pr 11657-3): 2 nM
- EC50 (Human immunodeficiency virus 1, MT2, subtype C gag/pr 20635-4): 1 nM
- EC50 (Human immunodeficiency virus 1, MT2, subtype C gag/pr 20706-3): 1 nM
- EC50 (Human immunodeficiency virus 1, MT2, subtype C gag/pr 1300495): 1 nM
- EC50 (Human immunodeficiency virus 1, MT2, subtype C gag/pr 1700141): 2 nM
- EC50 (Human immunodeficiency virus 1, MT2, subtype C gag/pr 1900543): 1 nM
- EC50 [1]: 4.4 nM
- EC90 [1]: 7.8 nM
- MPI (SDM A326T/V362I/V370A): 69%
- MPI (SDM A364V): 70%
- MPI (SDM R361K/V362I/L363M): 91%
- MPI (SDM T332S/V362I/prR41G): 97%
- MPI (SDM V362I/V370A): 91%
- MPI (SDM V370A): 97%
- MPI (SDM Wild type): 98%
- MPI (SDM ΔV370): 96%
